# Source: PMC7156458, “Synthetic biology based construction of biological activity-related library of fungal decalin-containing diterpenoid pyrones” (Nature Communications, 2020)
# Target: Aβ42 (Homo sapiens, UniProt P05067)
# Test: Th-T (thioflavin-T) assay of Aβ42 aggregation
# Format: biochemical
# Aβ42, sequence (P05067 672-713): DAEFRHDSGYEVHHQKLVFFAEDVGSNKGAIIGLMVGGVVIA
smiles,measurement,setting,value
C=C1CC[C@@H]2[C@](C)(CC[C@H]3O[C@H](C=C(C)C)C[C@@]23C)[C@@H]1Cc1c(OC)oc(CO)c(C(=O)OC)c1=O [Compound 21],"Fig. 7a Th-T reading, mean of three wells","column suffix _20, reading M101",0.9158
same,"Fig. 7a Th-T reading, mean of three wells","column suffix _20, reading M102",0.9188
same,"Fig. 7a Th-T reading, mean of three wells","column suffix _20, reading M103",0.9187
same,"Fig. 7a Th-T reading, mean of three wells","column suffix _20, reading M104",0.9595
same,"Fig. 7a Th-T reading, mean of three wells","column suffix _20, reading M105",0.9387
same,"Fig. 7a Th-T reading, mean of three wells","column suffix _20, reading M106",0.9399
same,"Th-T fluorescence, mean of three wells (Fig. 7a)","column suffix _50, measurement M19",0.2078
same,"Th-T fluorescence, mean of three wells (Fig. 7a)","column suffix _50, measurement M20",0.2087
same,"Th-T fluorescence, mean of three wells (Fig. 7a)","column suffix _50, measurement M21",0.2125
same,"Th-T fluorescence, mean of three wells (Fig. 7a)","column suffix _50, measurement M22",0.212
same,"Th-T fluorescence, mean of three wells (Fig. 7a)","column suffix _50, measurement M23",0.2107
same,"Th-T fluorescence, mean of three wells (Fig. 7a)","column suffix _50, measurement M24",0.2101
same,"Th-T fluorescence, mean of three wells (Fig. 7a)","column suffix _50, measurement M25",0.2098
same,"Th-T fluorescence, mean of three wells (Fig. 7a)","column suffix _50, measurement M26",0.2113
same,"Th-T fluorescence, mean of three wells (Fig. 7a)","column suffix _50, measurement M27",0.2118
same,"Th-T fluorescence, mean of three wells (Fig. 7a)","column suffix _50, measurement M28",0.2093
same,"Th-T fluorescence, mean of three wells (Fig. 7a)","column suffix _50, measurement M29",0.2091
same,"Th-T assay signal, mean of three wells (Fig. 7a)","column suffix _50, reading M1",0.2216
same,"Th-T assay signal, mean of three wells (Fig. 7a)","column suffix _50, reading M2",0.219
same,"Th-T assay signal, mean of three wells (Fig. 7a)","column suffix _50, reading M3",0.2148
same,"Th-T assay signal, mean of three wells (Fig. 7a)","column suffix _50, reading M4",0.2093
same,"Th-T assay signal, mean of three wells (Fig. 7a)","column suffix _50, reading M5",0.2111
same,"Th-T assay signal, mean of three wells (Fig. 7a)","column suffix _50, reading M6",0.209
same,"Th-T assay signal, mean of three wells (Fig. 7a)","column suffix _50, reading M7",0.2096
same,"Th-T assay signal, mean of three wells (Fig. 7a)","column suffix _50, reading M8",0.2075
same,"Th-T assay signal, mean of three wells (Fig. 7a)","column suffix _50, reading M9",0.2085
same,"Th-T assay signal, mean of three wells (Fig. 7a)","column suffix _50, reading M10",0.2097
same,"Th-T assay signal, mean of three wells (Fig. 7a)","column suffix _50, reading M11",0.2085
same,"Th-T assay signal, mean of three wells (Fig. 7a)","column suffix _50, reading M12",0.2082
same,"Th-T assay signal, mean of three wells (Fig. 7a)","column suffix _50, reading M13",0.2085
same,"Th-T assay signal, mean of three wells (Fig. 7a)","column suffix _50, reading M14",0.2061
same,"Th-T assay signal, mean of three wells (Fig. 7a)","column suffix _50, reading M15",0.2099
same,"Th-T assay signal, mean of three wells (Fig. 7a)","column suffix _50, reading M16",0.2095
same,"Th-T assay signal, mean of three wells (Fig. 7a)","column suffix _50, reading M17",0.2108
same,"Th-T assay signal, mean of three wells (Fig. 7a)","column suffix _50, reading M18",0.2093
same,"Fig. 7a Th-T reading, mean of three wells","column suffix _50, reading M85",0.38
same,"Fig. 7a Th-T reading, mean of three wells","column suffix _50, reading M86",0.3921
same,"Fig. 7a Th-T reading, mean of three wells","column suffix _50, reading M87",0.401
same,"Fig. 7a Th-T reading, mean of three wells","column suffix _50, reading M88",0.4081
same,"Fig. 7a Th-T reading, mean of three wells","column suffix _50, reading M89",0.4167
same,"Fig. 7a Th-T reading, mean of three wells","column suffix _50, reading M90",0.4233
same,"Fig. 7a Th-T reading, mean of three wells","column suffix _50, reading M91",0.4313
same,"Fig. 7a Th-T reading, mean of three wells","column suffix _50, reading M92",0.4386
same,"Fig. 7a Th-T reading, mean of three wells","column suffix _50, reading M93",0.4449
same,"Fig. 7a Th-T reading, mean of three wells","column suffix _50, reading M94",0.4505
same,"Fig. 7a Th-T reading, mean of three wells","column suffix _50, reading M95",0.4544
same,"Fig. 7a Th-T reading, mean of three wells","column suffix _50, reading M96",0.4583
same,"Fig. 7a Th-T reading, mean of three wells","column suffix _50, reading M97",0.4639
same,"Fig. 7a Th-T reading, mean of three wells","column suffix _50, reading M98",0.4638
same,"Fig. 7a Th-T reading, mean of three wells","column suffix _50, reading M99",0.4696
same,"Fig. 7a Th-T reading, mean of three wells","column suffix _50, reading M100",0.4671
same,"Fig. 7a Th-T reading, mean of three wells","column suffix _50, reading M101",0.4718
same,"Fig. 7a Th-T reading, mean of three wells","column suffix _50, reading M102",0.4727
same,"Fig. 7a Th-T reading, mean of three wells","column suffix _50, reading M103",0.4762
same,"Fig. 7a Th-T reading, mean of three wells","column suffix _50, reading M104",0.4757
same,"Fig. 7a Th-T reading, mean of three wells","column suffix _50, reading M105",0.4769
same,"Fig. 7a Th-T reading, mean of three wells","column suffix _50, reading M106",0.4817
same,"Th-T fluorescence, mean of three wells","compound at 10, reading M41 of time course",0.2566
same,"Th-T fluorescence, mean of three wells","compound at 10, reading M42 of time course",0.2579
same,"Th-T fluorescence, mean of three wells","compound at 10, reading M43 of time course",0.2567
same,"Th-T fluorescence, mean of three wells","compound at 10, reading M44 of time course",0.2585
same,"Th-T fluorescence, mean of three wells","compound at 10, reading M45 of time course",0.2609
same,"Th-T fluorescence, mean of three wells","compound at 10, reading M46 of time course",0.2644
same,"Th-T fluorescence, mean of three wells","compound at 10, reading M47 of time course",0.2626
same,"Th-T fluorescence, mean of three wells","compound at 10, reading M48 of time course",0.2676
same,"Th-T fluorescence, mean of three wells","compound at 10, reading M49 of time course",0.2662
same,"Th-T fluorescence, mean of three wells","compound at 10, reading M50 of time course",0.2709
same,"Th-T fluorescence, mean of three wells","compound at 10, reading M51 of time course",0.2759
same,"Th-T fluorescence, mean of three wells","compound at 10, reading M52 of time course",0.2782
same,"Th-T fluorescence, mean of three wells","compound at 10, reading M53 of time course",0.2826
same,"Th-T fluorescence, mean of three wells","compound at 10, reading M54 of time course",0.2883
same,"Th-T fluorescence, mean of three wells","compound at 10, reading M55 of time course",0.2969
same,"Th-T fluorescence, mean of three wells","compound at 10, reading M56 of time course",0.3032
same,"Th-T fluorescence, mean of three wells","compound at 10, reading M57 of time course",0.3204
same,"Th-T fluorescence, mean of three wells","compound at 10, reading M58 of time course",0.3339
same,"Th-T fluorescence, mean of three wells","compound at 10, reading M59 of time course",0.3536
same,"Th-T fluorescence, mean of three wells","compound at 10, reading M60 of time course",0.3831
same,"Th-T fluorescence, mean of three wells","compound at 10, reading M61 of time course",0.414
same,"Th-T fluorescence, mean of three wells","compound at 10, reading M62 of time course",0.4619
same,"Th-T fluorescence, mean of three wells","compound at 20, reading M41 of time course",0.2134
same,"Th-T fluorescence, mean of three wells","compound at 20, reading M42 of time course",0.2125
same,"Th-T fluorescence, mean of three wells","compound at 20, reading M43 of time course",0.2115
same,"Th-T fluorescence, mean of three wells","compound at 20, reading M44 of time course",0.212
same,"Th-T fluorescence, mean of three wells","compound at 20, reading M45 of time course",0.2129
same,"Th-T fluorescence, mean of three wells","compound at 20, reading M46 of time course",0.214
same,"Th-T fluorescence, mean of three wells","compound at 20, reading M47 of time course",0.2155
same,"Th-T fluorescence, mean of three wells","compound at 20, reading M48 of time course",0.2155
same,"Th-T fluorescence, mean of three wells","compound at 20, reading M49 of time course",0.2153
same,"Th-T fluorescence, mean of three wells","compound at 20, reading M50 of time course",0.2164
same,"Th-T fluorescence, mean of three wells","compound at 20, reading M51 of time course",0.2208
same,"Th-T fluorescence, mean of three wells","compound at 20, reading M52 of time course",0.2184
same,"Th-T fluorescence, mean of three wells","compound at 20, reading M53 of time course",0.2214
same,"Th-T fluorescence, mean of three wells","compound at 20, reading M54 of time course",0.2246
same,"Th-T fluorescence, mean of three wells","compound at 20, reading M55 of time course",0.224
same,"Th-T fluorescence, mean of three wells","compound at 20, reading M56 of time course",0.2282
same,"Th-T fluorescence, mean of three wells","compound at 20, reading M57 of time course",0.2293
same,"Th-T fluorescence, mean of three wells","compound at 20, reading M58 of time course",0.2297
same,"Th-T fluorescence, mean of three wells","compound at 20, reading M59 of time course",0.2309
same,"Th-T fluorescence, mean of three wells","compound at 20, reading M60 of time course",0.2314
same,"Th-T fluorescence, mean of three wells","compound at 20, reading M61 of time course",0.2372
same,"Th-T fluorescence, mean of three wells","compound at 20, reading M62 of time course",0.2381
same,"Th-T fluorescence, mean of three wells","compound at 50, reading M41 of time course",0.2143
same,"Th-T fluorescence, mean of three wells","compound at 50, reading M42 of time course",0.2133
same,"Th-T fluorescence, mean of three wells","compound at 50, reading M43 of time course",0.2141
same,"Th-T fluorescence, mean of three wells","compound at 50, reading M44 of time course",0.2135
same,"Th-T fluorescence, mean of three wells","compound at 50, reading M45 of time course",0.2151
same,"Th-T fluorescence, mean of three wells","compound at 50, reading M46 of time course",0.2145
same,"Th-T fluorescence, mean of three wells","compound at 50, reading M47 of time course",0.2129
same,"Th-T fluorescence, mean of three wells","compound at 50, reading M48 of time course",0.2151
same,"Th-T fluorescence, mean of three wells","compound at 50, reading M49 of time course",0.2127
same,"Th-T fluorescence, mean of three wells","compound at 50, reading M50 of time course",0.2161
same,"Th-T fluorescence, mean of three wells","compound at 50, reading M51 of time course",0.2181
same,"Th-T fluorescence, mean of three wells","compound at 50, reading M52 of time course",0.2182
same,"Th-T fluorescence, mean of three wells","compound at 50, reading M53 of time course",0.2185
